Patent publication US7897593B2, “HIV integrase inhibitors” (priority 2006, dated 2011)
Where two headings read alike, the source gives them in different places.

Experiments:
[1] = tested on: recombinant NL-Rluc virus; test: Inhibition of HIV replication; type: cell-based; conditions: three serum conditions described, the one tabulated is not stated
[2] = target: T1, purified integrase (Human immunodeficiency virus type 1 group M subtype B, UniProt P12497); test: HIV-Integrase binding assay (competition with radiolabeled integrase inhibitor); conditions: competition with [3H]-labeled integrase inhibitor; Cheng and Prusoff
T1 construct: Recombinant integrase (0.26 ng) was incubated with the beads
Procedure: HIV-Integrase binding assay. In this assay competitive binding experiments with test compounds and a radiolabeled integrase inhibitor (compound A) are performed against purified integrase. […] Binding reactions were carried out in 96-well white polystyrene assay plates (Corning, #3600). The following was added sequentially to each well: 20 μl of water or 20μl of human serum (Cellgro Cat# 35-060-CL), 5 μl of serially diluted compound (in 50% DMSO/50% integrase SPA buffer), 5 μl of [^3H]-compound I (6,000 cpm/μl in SPA buffer) and 20 μl of bead/DNA/enzyme complex. The plates were shaken for 2 hours and then allowed to sit at room temperature without shaking overnight. The [^3H]-compound I binding was measured using a Topcount scintillation counter. Cheng and Prusoff equations were used to convert the inhibition of compound 1 binding into the corresponding Ki value. Activity equal to A refers to a compound having Ki=0.001 to 0.003 μM while B and C denote compounds having Ki=0.003 to 0.05 μM and Ki≧0.050 μM respectively.

[3] = read-out: Antiviral Activity, NL-RLuc virus
[4] = Human immunodeficiency virus 1, read-out: Antiviral Activity, NL-RLuc virus

Row | SMILES | EC50 [1, 3] | Ki [2] | EC50 [1, 4]
1 | Cc1ncnn1-c1cc(F)ccc1CNC(=O)c1nc2n(c(=O)c1O)CCCOC21CCN(S(C)(=O)=O)CC1 [Example 62] | 10 to 100 nM | 3 to 50 nM | 
2 | CC(=O)N1CCC2(CC1)OCCCn1c2nc(C(=O)NCc2ccc(F)cc2-n2ncnc2C)c(O)c1=O [Example 63] |  | 3 to 50 nM | 10 to 100 nM
3 | COC(=O)N1CCC2(CC1)OCCCn1c2nc(C(=O)NCc2ccc(F)cc2-n2ncnc2C)c(O)c1=O [Example 64] |  | 3 to 50 nM | 1 to 10 nM
4 | Cc1ncnn1-c1cc(F)ccc1CNC(=O)c1nc2n(c(=O)c1O)CCCOC21CCN(C(=O)N(C)C)CC1 [Example 65] |  | 3 to 50 nM | 1 to 10 nM
5 | Cc1ncnn1-c1cc(F)ccc1CNC(=O)c1nc2n(c(=O)c1O)CCCOC21CCN(S(=O)(=O)N(C)C)CC1 [Example 66] |  | 3 to 50 nM | 1 to 10 nM
6 | Cc1nnc(C(=O)N2CCC3(CC2)OCCCn2c3nc(C(=O)NCc3ccc(F)cc3-n3ncnc3C)c(O)c2=O)o1 [Example 67] |  | 3 to 50 nM | 10 to 100 nM
7 | CN(C)S(=O)(=O)N1CCC2(CC1)COCCn1c2nc(C(=O)NCc2ccc(F)cc2)c(O)c1=O [Example 68] |  | 3 to 50 nM | 10 to 100 nM
8 | CC(=O)N1CCC2(CC1)COCCn1c2nc(C(=O)NCc2ccc(F)cc2-n2ncnc2C)c(O)c1=O [Example 69] |  | 3 to 50 nM | > 100 nM
9 | Cc1ncnn1-c1cc(F)ccc1CNC(=O)c1nc2n(c(=O)c1O)CCOCC21CCN(S(=O)(=O)N(C)C)CC1 [Example 70] |  | 3 to 50 nM | 10 to 100 nM
10 | Cc1ncnn1-c1cc(F)ccc1CNC(=O)c1nc2n(c(=O)c1O)CCOCC21CCN(C(=O)N(C)C)CC1 [Example 71] |  | 3 to 50 nM | 10 to 100 nM
11 | COC(=O)N1CCC2(CC1)COCCn1c2nc(C(=O)NCc2ccc(F)cc2-n2ncnc2C)c(O)c1=O [Example 72] |  | 3 to 50 nM | 10 to 100 nM
12 | Cc1ncnn1-c1cc(F)ccc1CNC(=O)c1nc2n(c(=O)c1O)CCCOC21CCN(S(C)(=O)=O)CC1 [Example 73] | > 100 nM | 3 to 50 nM | 
13 | Cc1ncnn1-c1cc(F)ccc1CNC(=O)c1nc2n(c(=O)c1O)CCCOC21CCN(C(=O)C(=O)N(C)C)CC1 [Example 74, 1-(2-(Dimethylamino)-2-oxoacetyl)-N-(4-fluoro-2-(5-methyl-1H-1,2,4-triazol-1-yl)benzyl)-3′-hydroxy-4′-oxo-4′,6′,7′,8′-tetrahydrospiro[piperidine-4,10′-pyrimido[2,1-c][1,4]oxazepine]-2′-carboxamide] |  | 3 to 50 nM | > 100 nM
14 | CN(C)C(=O)C(=O)N1CCC2(CC1)OCCCn1c2nc(C(=O)NCc2ccc(F)cc2)c(O)c1=O [Example 75, 1-(2-(Dimethylamino)-2-oxoacetyl)-N-(4-fluorobenzyl)-3′-hydroxy-4′-oxo-4′,6′,7′,8′-tetrahydrospiro[piperidine-4,10′-pyrimido[2,1-c][1,4]oxazepine]-2′-carboxamide] |  | 3 to 50 nM | 10 to 100 nM
